Data from US20240425891A1, “Host cells and methods for improved polyketide production using methylmalonyl-CoA-dependent polyketide synthase (PKS)” (THE REGENTS OF THE UNIVERSITY OF CALIFORNIA, priority 2023, published 2024).

Experiments:
hexokinase (HK2) = molecular target: T1, hexokinase (HK2) (Homo sapiens, UniProt P52789); settings: literature reference 36; cited from earlier work
T1 sequence (P52789 1-917): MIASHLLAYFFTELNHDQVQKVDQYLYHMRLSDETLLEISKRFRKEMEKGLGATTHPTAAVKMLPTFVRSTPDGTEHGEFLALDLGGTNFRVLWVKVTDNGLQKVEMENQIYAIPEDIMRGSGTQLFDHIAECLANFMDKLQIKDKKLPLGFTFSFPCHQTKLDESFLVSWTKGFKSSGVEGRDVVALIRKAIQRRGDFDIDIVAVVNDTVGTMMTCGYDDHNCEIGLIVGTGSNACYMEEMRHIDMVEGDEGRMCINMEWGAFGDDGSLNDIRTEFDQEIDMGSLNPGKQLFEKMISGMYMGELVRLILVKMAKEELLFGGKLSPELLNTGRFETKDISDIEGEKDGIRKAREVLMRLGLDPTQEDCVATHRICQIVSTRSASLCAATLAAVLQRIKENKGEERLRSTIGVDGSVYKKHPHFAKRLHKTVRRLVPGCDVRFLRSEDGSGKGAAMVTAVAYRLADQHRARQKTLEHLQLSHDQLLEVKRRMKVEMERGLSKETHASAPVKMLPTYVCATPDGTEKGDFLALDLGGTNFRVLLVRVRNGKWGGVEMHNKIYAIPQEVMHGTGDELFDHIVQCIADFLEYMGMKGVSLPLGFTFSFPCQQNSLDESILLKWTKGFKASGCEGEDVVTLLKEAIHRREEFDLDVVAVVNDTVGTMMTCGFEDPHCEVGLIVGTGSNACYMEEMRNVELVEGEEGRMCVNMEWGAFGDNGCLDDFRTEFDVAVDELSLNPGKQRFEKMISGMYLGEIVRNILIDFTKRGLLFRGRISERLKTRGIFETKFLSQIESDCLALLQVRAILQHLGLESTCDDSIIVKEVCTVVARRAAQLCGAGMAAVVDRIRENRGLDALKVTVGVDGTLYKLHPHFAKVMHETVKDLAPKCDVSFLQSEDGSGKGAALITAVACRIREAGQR

C. glutamicum Cz034 = assay: Propionate tolerance of Cz034 in CGXII minimal medium (growth curve); type: cell-based, Corynebacterium glutamicum
Method: Propionate tolerance was first evaluated using Cz034 in CGXII minimal medium to evaluate the highest propionate concentration for ALE. The lag phase increased as the propionate concentration increased, and no growth was observed when the propionate concentration was over 8,000 mg/L (Extended Data FIG. S11a, b). Then, ALE was applied to improve propionate tolerance and germicidin production in Cz12 by repeatedly growing the strains in increasing concentrations of propionate until we reached 8,000 mg/L (Extended Data FIG. S12). After two months of evolution, 563 single colonies were picked up from plates. Most of them grew faster than the initial strain (Extended Data FIG. S13a, b, c, d). […] To clarify whether the increased germicidin production improved methylmalonyl-CoA utilization, germicidin titer was measured on evolved strains.
Colony PCR. Pick up colonies from plate and cultivate in BHI medium (30° C., 200 rpm) overnight (around 14-16 h). Prepare digestion solution (120 μL zymolase (E1005, ZYMO RESEARCH) and 2500 μL PBS pH=7.2) for 96 reactions. Take 3-5 μL overnight culture into 20 μL digestion solution, 30° C. for 1 h. Add 3-5 μL dimethyl sulfoxide (DMSO), then 98° C. for 10 min. Take 2 μL for 50 μL PCR reaction. Growth curve measurement. Various cells were pre-cultivated in BHI liquid medium (30° C., 200 rpm) overnight. […] Growth curve was measured by SpectraMaX M2e at 30° C.

Molecule | IC50 on hexokinase (HK2) (hexokinase (HK2)) [µg/mL] | propionate concentration above which no growth was observed (C. glutamicum Cz034)
germicidin | 780 | –
CCC(=O)O [propionate] | – | over 8,000 mg/L
